Patent US20130065227A1, “METHODS OF INCREASING MACROPINOCYTOSIS IN CANCER CELLS” (priority 2010, published 2013)

Columns and labels:
[1] = test system: CHO; experiment: Uptake of AS1411 by macropinocytosis (MP); format: cell-based; conditions: Non-cancer, hamster ovary
Source text: (§1) It has recently been discovered that AS1411 can stimulate macropinocytosis (MP) in cancer cells and this finding was verified by several different methods and in multiple cancer cell lines (Table 1).

[2] = test system: RCC4; experiment: Uptake of AS1411 by macropinocytosis (MP); format: cell-based; conditions: Cancer, renal cell
Source text: as §1

[3] = test system: A549; experiment: Uptake of AS1411 by macropinocytosis (MP); format: cell-based; conditions: Cancer, non-small cell lung
Source text: as §1

[4] = test system: RWPE1; experiment: Uptake of AS1411 by macropinocytosis (MP); format: cell-based; conditions: Non-cancer, prostate epithelial
Source text: as §1

[5] = test system: BEAS2B; experiment: Uptake of AS1411 by macropinocytosis (MP); format: cell-based; conditions: Non-cancer, lung epithelial
Source text: as §1

[6] = test system: MCF10A; experiment: Uptake of AS1411 by macropinocytosis (MP); format: cell-based, human; conditions: Non-cancer, breast epithelial
Source text: as §1

[7] = test system: MCF7; experiment: Stimulation of macropinocytosis (dextran uptake); format: cell-based; conditions: MCF7; Cancer, breast
Method: (§2) FIG. 10 are graphs showing the stimulation of macropinocytosis by GROs. Breast carcinoma cells (MDA-MB-231, MCF-7) or non-malignant breast epithelial cells (MCF10A) cells were plated 18 hr before treatment with 10 μM tAS1411 or 10 μM tCRO or water in complete DMEM medium at 37° C. for 48 hr or 72 hr. After treatment, cell medium was changed for fresh complete medium containing 0.2 mg/ml dextran-10K labeled with Alexa Fluor 488 and cells were incubated for 30 min at 37° C. Cells were then incubated on ice with 1 mg/ml PI in PBS, harvested, and analyzed by flow cytometry. Uptake was normalized to no pre-treatment controls and bars show the mean and SE of three independent experiments.
(§3) To analyze uptake of the oligodeoxynucleotides or dextran-10K (macropinocytic marker) by flow cytometry, 2×10^5 cells in fresh supplemented culture medium (2.5 ml) were plated into 6-well plates for 18 h. After complete adhesion, the cells were incubated with 5′-FAM tagged oligodeoxynucleotides or Alexa Fluor 488 tagged dextran-10K and incubated as indicated in the Description of the Drawings. Cells were washed once with ice-cold PBS, incubated with 1 μg/ml 7-amino-actinomycin D (7-AAD) for 5 min on ice or 1 μg/ml propidium iodide (PI), and washed twice with ice-cold PBS. Cells were then treated with 0.01% trypsin/0.5 mM EDTA (300 μl) for 3 min prior addition 3 ml supplemented culture medium. The cells were then centrifuged and resuspended in 0.5 ml of 1% paraformaldehyde for analysis by flow cytometry using a FACScalibur cytometer (BD Biosciences, Mountain View, Calif.).
(§4) AS1411 causes a change in cancer cell morphology that is characterized by vacuolization, irregular nuclei, and swollen cells (Xu et al., 2001, J. Biol. Chem., 276:43221-30). Therefore, the effect of AS1411 on macropinocytosis in DU145 cells and non-malignant Hs27 cells was investigated. […] As in all of the flow cytometry experiments, cells were gated to exclude permeable cells, discounting the possibility that this increase was due to cell death. […] One implication of the finding that AS1411 causes hyperstimulation of macropinocytosis is that treatment of AS1411 might actually promote its own internalization by cancer cells. To test this idea, DU145 cells were pre-treated for 24 h with tAS1411, then added FL-AS1411 and evaluated uptake after an additional 2 h using flow cytometry. […] This idea is not necessarily inconsistent with the time course data shown in FIG. 1A because the fluorescence signal may decrease over time for a number of reasons, including exocytosis of the ligand and fluorescence quenching due to protein binding or environmental factors (the fluorophore used for flow cytometry is particularly sensitive to acidic environments). […]

[8] = test system: MDA-MB-231; experiment: Stimulation of macropinocytosis (dextran uptake); format: cell-based; conditions: MDA-MB-231; Cancer, breast
Method: as §2, §3, §4

[9] = test system: DU145 cells; experiment: Uptake of fluorescently labeled duplex siRNA after AS1411 pre-treatment; format: cell-based; conditions: 10 μM, 48 h
Source text: FIG. 18 is a graph showing the uptake of siRNA in the presence of AS1411.
Furthermore, due to the unique properties of MPsomes, delivery by MP leads to increased functional activity. Thus, treatment with AS1411, followed by administration of an anticancer siRNA, for example, leads to a synergistic increase in anticancer effects without harming normal cells. Another strategy to potentiate the effects of AS1411 is to combine it with agents that promote MP and activation of Rac. This leads to increased macropinocytic uptake of AS1411 and/or enhanced methuosis.

[10] = test system: most cancer cells tested; experiment: Cell death on continuous exposure; format: cell-based; conditions: 10 μM AS1411
Method: As described above, it is known that AS1411 can induce an unusual form of cell death in cancer cells. It was previously shown that G-rich oligonuclotides could induce cell death selectively in cancer cells compared to non-malignant cells, but it was noted that the morphology of the cells was inconsistent with death by apoptosis. The timing of cell death was also quite unusual, with continuous exposure (at 10 μM AS1411) for 7 days or more required to cause complete cell death for most cancer cells tested. […] However, cell death was also dose-dependent and occurred within hours in DU145 cells treated with 40 μM AS1411. Based on the various published reports, the cell death mechanism in U937 leukemia cells was investigated, and it was confirmed that cell death was not by apoptosis (FIG. 14 A-D). […] Although the same detailed studies of cell death have not been carried out in other cancer cell lines, it is consistently seen that AS1411-responsive cells die with a characteristic morphology (enlarged and vacuolated cells) without evidence of apoptosis.

[11] = test system: Hs27; experiment: Stimulation of macropinocytosis (dextran uptake); format: cell-based, human; conditions: Hs27; Non-cancer, skin fibroblasts
Method: (Panel A) DU145 cells were treated with 10 μM tAS1411 or 10 μM tCRO or no oligonucleotide in complete DMEM medium at 37° C. for the time indicated. After treatment, cell medium was changed for fresh complete medium containing 0.2 mg/ml dextran-10K labeled with Alexa Fluor 488, and cells were incubated for 30 min at 37° C. After incubation, cells were harvested and analyzed by flow cytometry to determine dextran uptake. (Panel B) The same experiment was performed using Hs27 cells. (Panel C) DU145 cells were treated with 10 μM tAS1411 or 10 μM tCRO or no oligonucleotide in complete DMEM medium at 37° C. for 48 h. […]
AS1411 causes a change in cancer cell morphology that is characterized by vacuolization, irregular nuclei, and swollen cells (Xu et al., 2001, J. Biol. Chem., 276:43221-30). […] To test this idea, DU145 cells were pre-treated for 24 h with tAS1411, then added FL-AS1411 and evaluated uptake after an additional 2 h using flow cytometry. […] This idea is not necessarily inconsistent with the time course data shown in FIG. 1A because the fluorescence signal may decrease over time for a number of reasons, including exocytosis of the ligand and fluorescence quenching due to protein binding or environmental factors (the fluorophore used for flow cytometry is particularly sensitive to acidic environments). […]

## 5′-d(GGTGGTGGTGGTTGTGGTGGTGGTGG) [AS1411]
[1]
  Update by MP?: No
[2]
  Update by MP?: Yes
[3]
  Update by MP?: Yes
[4]
  Update by MP?: No
[5]
  Update by MP?: Low
[6]
  Update by MP?: Low
[7]
  Stimulate MP?: Yes
[8]
  Stimulate MP?: Yes
[9]
  siRNA delivery after pre-treatment: substantial increase in siRNA delivery
[10]
  continuous exposure required to cause complete cell death: ≥ 7 days
[11]
  Stimulate MP?: No
